Test results from patent US20240417399A1, “ARYL HYDROCARBON RECEPTOR (AHR) MODULATORS AND THERAPEUTIC USES THEREOF” (GALILEO BIOSYSTEMS, INC., priority 2021, published 2024).

Experiments:
[1] = test system: IL-17; test: Imiquimod (IMQ)-induced skin inflammation: IL-17 gene expression in ear by qPCR; assay type: in vivo; settings: Balb/c mice, topical on right ear, 20 μL, 50 mM once daily Day 1 to Day 9, IMQ cream
Method: (§1) The compounds are administered on the right ear once daily from Day 1 to Day 9 for 9 consecutive days. […] Daily Clobetasol dosage is 20 mg of 0.05% cream. One hour after administration, 15 mg imiquimod (IMQ) cream (5%, Aldaras) is applied topically on the right ear from Day 1 to Day 9 for 9 consecutive days. Ear swelling is measured (mm) as an index of inflammation on Day 0 and thereafter 30 min before dosing on Days 2, 4, 6 and 8. On Day 10, ear swelling is measured 24 hours after the last dosing. Ear edema is calculated by subtracting the thickness of Day 0 (normal control) from Day n (treated ear). Percent inhibition is calculated according to the formula: (Lc−Lt)/Lc×100, where Lc and Lt refer to increase of ear thickness in control and treated mice, respectively. Clinical scoring is done on the same days as the measurement of ear swelling. Body weight is recorded on Day 0 and thereafter daily before dosing. […] Right ears are harvested, weighed after the last ear swelling measurement, and cut into two parts, one part to be kept in 10% formalin for histopathological examination and the second part to be stored in RNAlater® solution at −20° C. for detection of IL-17 A, IL-22, GAPDH, and beta defensin with quantitative real-time PCR (qPCR). Dermal thickness is measured after taking photographs under a light microscope for the histopathological examination sections. […]

[2] = test system: IL-4; test: IL-4 release from T-cells, inflammation induced by CD2, CD3, and CD28; assay type: cell-based; settings: highest test concentrations
Excerpt: (§2) Inflammation of T-cells were induced by CD2, CD3, and CD28. […] FIG. 7B depicts concentration response curves of inhibition of IL-2 and IL-4 release and cell viability for tapiranof.

[3] = test system: IL-8; test: IL-8 release from human keratinocytes, inflammation induced by IL-17 and IFN-α; assay type: cell-based; settings: human keratinocytes induced by IL-17 and IFN-α
Excerpt: FIG. 6B depicts concentration response curves of inhibition of IL-8 release and cell viability for tapiranof.

[4] = test system: CCL2; test: CCL2 release from human keratinocytes, inflammation induced by IL-4, IL-13, IL-22 and IFN-γ; assay type: cell-based; settings: human keratinocytes induced by IL-4, IL-13, IL-22 and IFN-γ
Excerpt: (§3) Inflammation of human keratinocytes was induced by IL-4, IL-13, IL-22 and IFN-γ. […] FIG. 5B depicts concentration response curves of CCL2 release and cell viability for tapiranof.

[5] = test system: Male Balb/c mice; test: Imiquimod (IMQ)-induced skin inflammation: ear swelling; assay type: in vivo; settings: topical on right ear, 20 μL, 50 mM once daily Day 1 to Day 9, IMQ cream
Method: as §1

[6] = test system: IL-2; test: IL-2 release from T-cells, inflammation induced by CD2, CD3, and CD28; assay type: cell-based; settings: highest test concentrations
Excerpt: as §2

[7] = Imiquimod (IMQ)-induced skin inflammation: body weight; assay type: in vivo; settings: Balb/c mice, topical on right ear, 20 μL, 50 mM once daily Day 1 to Day 9
Method: as §1

[8] = test system: human keratinocytes; test: Cell viability of human keratinocytes, inflammation induced by IL-4, IL-13, IL-22 and IFN-γ; assay type: cell-based; settings: human keratinocytes induced by IL-4, IL-13, IL-22 and IFN-γ
Excerpt: as §3

Structure (SMILES) | IL-17 gene expression in the ear [1] | inhibition of IL-4 release [2] | inhibition of IL-8 release [3] | inhibition of CCL2 release [4] | ear swelling compared to vehicle [5] | inhibition of IL-2 release [6] | effect on body weights [7] | cell viability [8]
O=C(c1nc2ccccc2[nH]1)c1c[nH]c2ccccc12 [Compound 10] | reduction in IL-17 gene expression | inhibited release of IL-2 and IL-4 at the highest test concentrations | inhibited release of IL-8 | inhibited release of CCL2 | significant reductions in ear swelling | inhibited release of IL-2 and IL-4 at the highest test concentrations | no significant effect on body weights | 
CC(C)c1c(O)cc(/C=C/c2ccccc2)cc1O [tapiranof, reference compound] |  | inhibited release of IL-2 and IL-4 at the highest test concentrations | inhibited release of IL-8 | inhibited release of CCL2 |  | inhibited release of IL-2 and IL-4 at the highest test concentrations |  | inhibition of cell viability at higher concentrations
